Earlier results in patent US20160102058A1, “FLUORO-PERHEXILINE COMPOUNDS AND THEIR THERAPEUTIC USE” (THE UNIVERSITY COURT OF THE UNIVERSITY OF ABERDEEN, priority 2013, published 2016).

Tests used:
[1] = cited from earlier work
[2] = EM versus PM; cited from earlier work

C1CCC(C(CC2CCCCN2)C2CCCCC2)CC1 (stereo not drawn) [Perhexiline, 2-(2,2-dicyclohexylethyl)piperidine]
plasma perhexiline to metabolite ratio, patients without toxicological side-effects ([1]; patients who showed no side-effects): 0.3
plasma perhexiline to metabolite ratio, patients with side-effects ([1]; patients who showed side-effects): 2.8
difference in perhexiline clearance and required dosage between EM and PM patients [2]: ~100 fold
